Values quoted from earlier work in patent publication US20230097323A1, “Method and Devices for Transdermal Delivery of Hydrogen Gas for Therapeutic Purposes” (Hyderm Innovations LLC, priority 2021, published 2023).

Assays:
[1] = transdermal supply, bag fitted snugly to the skin
[2] = at ambient temperature

[HH] [hydrogen, Molecular hydrogen]
time until hydrogen concentration in the skin reaches a plateau [1]: 40 to 60 min
solubility of hydrogen in water [2]: about 1.6 mg/l
